Series [1] relates to CD1 (young male and female) or C57BL/6 (aged male) mice. Kind of series: Cold tail flick somatic pain assay. The series is classed as in vivo, mouse. The following applies: for analgesia in cold tail-flick assay: 100 mg/kg, all cohorts; for tail withdrawal time (latency) to cold stimulation: 32 and 100 mg/kg PO, 4 °C water. The protocol: Half of the tail was immersed in ice-cold water maintained at 4° C. For the tail-flick assays, we used n=70 aged male mice, n=90 young male mice, and n=120 young female mice. Based on the availability of mice at the time of the experiments, different numbers of animals were assigned in different cohorts of experimental animals. Tail flick assay experiments were conducted on an open bench in a dedicated room at the LSUHSC New Orleans Neuroscience Center of Excellence vivarium. Mice were allowed to acclimate to the laboratory environment for 1 h prior to testing. To restrain the mice for the test, disposable plastic 50 mL screw-capped conical centrifuge tubes were cut at the tip to create a 0.5 cm opening to allow the mice to breathe freely. Another 0.5 cm opening was cut into the cap to allow access of the tail to the water bath. A 500 mL glass beaker was filled with 450 mL of ice-cold distilled water maintained at 4° C. with the addition of ice and determined with a glass thermometer. Mice were held over the opening of the water bath, and their tails submerged approximately halfway into the water. The nociceptive threshold was taken as the latency until the mice flicked their tail tip or removed the tail. The time from immersion to the attempted tail tip removal was measured to 1/10th of a sec with a digital laboratory timer. To minimize damage to the tail, a 60-sec cut-off was utilized. […] Injections were at doses of 32 mg/kg and 100 mg/kg. 30 min post-drug administration tail-flick/withdrawal latency was measured.

The test system of another series is Sprague-Dawley rats. As to the kind of experiment: CFA-induced inflammatory pain / Hargreaves thermal sensitivity assay. Type of series: in vivo, rat. The following applies: for analgesia, paw withdrawal latencies: 100 mg/kg. An excerpt: In these same cohorts of animals, we simultaneously measured their thermal nociception to hyperalgesia with the Hargreaves test using the plantar test apparatus (Ugo Basile 37570). In this experimental setup, the rodents are placed in plastic cages on top of a glass surface, and their hind paws are subjected to an infrared heat stimulus. One hind paw at a time is stimulated with the light source (noxious stimuli) until the animal retracts the paw from the glass surface because of the stimulus. Baseline withdrawal thresholds (latency) of both the right and left paws were recorded, and animals were assigned to different treatment groups so that each group had approximately equal withdrawal threshold averages in both paws. After baseline testing, treated animals received subcutaneous plantar injection (150 μl) of 50% CFA into the left hind paw, while control animals received a plantar injection (150 μl) of 0.9% NaCl into their left hind paw. CFA induces inflammation, resulting in a left hind paw that is hypersensitive to the thermal stimulus, while the right hind paw serves as a within-subject baseline for each animal. To obtain Hargreaves withdrawal latency recordings, each animal was placed in an individual plastic observation compartment on a glass platform, which provided access to the plantar surface of the hind paws from underneath. After acclimation to the environment for 30 min, thermal hypersensitivity was assessed by stimulating the mid-plantar area of each hind paw with a bright light source attached to the meter (Ugo Basile 37570) until animals withdrew the paw from the surface. The withdrawal threshold was defined as the average time (s) required for the rat to withdraw the stimulated paw. A brisk withdrawal of the paw (often followed by a sustained retraction and/or licking) was considered a positive response, but paw withdrawals due to locomotion or weight shifting were not counted. The Hargreaves studies were conducted with the plantar stimulation device that automatically registers the time (s) necessary to elicit paw withdrawal in order to eliminate bias in determining paw withdrawal thresholds. A cutoff of 20 s is pre-programmed so that the light source shuts off at that maximal period so as to not induce any burns on the plantar surface of the rodents. The Hargreaves test permits measurement of ipsilateral and contralateral heat thresholds, allowing each animal to serve as its own internal control in unilateral pain models. In addition, the Hargreaves test enables quantification of heat thresholds in unrestrained animals, reducing the likelihood of stress-induced responses.

The next series has as its system CD1 mice. The following applies: for signs of hepatotoxicity: CD-1 mice; for animals dead in 48 hours: FIG. 1F experiment, data not shown. The procedure: After drug administration, animals were returned to their respective cages and maintained with food and water provided ad libitum for the next 12 h. Animals were then euthanized under 5% isoflurane anesthesia after 12 h, and whole blood samples were collected transcardially in sterile microcentrifuge tubes without anti-coagulants. Whole blood samples were stored at room temperature (25° C.) for 30 min, allowing them to coagulate, which was centrifuged at 1,000 g for 5 min at 4° C. to isolate serum samples from whole blood, which were collected, aliquoted, and stored at −80° C. for identification of NAPQI, and liver function tests (LFTs).
LFTs were done on fresh serum samples, and not on thawed frozen serum samples to avoid denaturing LFT transaminases due to freeze/thaw of frozen serum.
Employing a consistent lethal dose for both compounds streamline the experimental design and facilitates data interpretation. This approach aligns with FDA guidelines on Bioequivalence and Bioavailability studies for estimating the maximum safe starting dose in humans, a strategy further substantiated by others. At 12 h post-injection, mice were deeply anesthetized under 5% isoflurane for more than 5 min and formalin-fixed via transcardial perfusion with 10% Neutral Buffered Formalin (NBF) after exsanguination using 0.9% NaCl. Liver tissues were extracted and stored in NBF for 24 h post fixation, after which they were then transferred to 80% EtOH for storage prior to paraffin embedding, sectioning, and immunological staining. FFPE blocks were sectioned into 5 μm thick slices on regular frost-free plus slides and dried overnight on a slide warmer. After deparaffination, sections were stained with validated antibodies for nitrotyrosine and ZO-1 (tight junctions). […] Nitrotyrosine labeling was detected with 3′3′-Diaminobenzidine (DAB) staining, and nitrotyrosine labeled hepatic sections were imaged at 100× magnification in brightfield using a Nikon Eclipse TS100 microscope with NIS-Elements BR 3.0 software (NIKON Inc, Melville, NY, USA). Slides with ZO-1 staining were imaged in z-stacks obtained at 20× magnification using Olympus FV-1200 confocal microscope with Fluoview software FV10-ASW Version 04.02.02.09 (Olympus Corp Center Valley, PA, USA). Quantification of ZO-1 staining hepatic tight junctions was carried out by unbiassed image analysis calculating area sum of pixel^2 of the green channel staining ZO-lusing CellSens software (Olympus Corp Center Valley, PA, USA).

Setting [2] is: young male and young female rats.

Entries after “also recorded” stand apart in the source; their conditions may differ.

Take `CC(=O)Nc1ccc(O)cc1` [ApAP, acetaminophen]: in series [1], the “analgesia in cold tail-flick assay” value is “significant analgesia” and the “tail withdrawal time (latency) to cold stimulation” value is reported as “increased tail withdrawal time (latency)”. Also, the “analgesia, paw withdrawal latencies” value in the series on Sprague-Dawley rats (aged male rats) was “significant analgesia”. Moreover, the “analgesia, paw withdrawal latencies” value in the series on Sprague-Dawley rats (setting [2]) is listed as “significant analgesia”. The “hepatic tight junctions by ZO-1 staining” value with CD1 mice (CD1 mice, 600 mg/kg PO, 12 h, 600 mg/kg) is listed as “significant reduction in ZO-1-stained tight junctions; also recorded: marked decrease in ZO-1”. Besides, the signs of hepatotoxicity result with CD1 mice (600 mg/kg) is given as “hepatotoxicity is evident”. Also, in the series on CD1 mice, the “animals dead in 48 hours” value was determined as 75%.

For `CCN(CC)C(=O)c1ccccc1S(=O)(=O)NCC(=O)Nc1ccc(O)cc1` [SRP-001, N,N-diethyl-2-[[2-(4-hydroxyanilino)-2-oxo-ethyl]sulfamoyl]benzamide], in series [1], the “analgesia in cold tail-flick assay” value is given as “significant analgesia”. In addition, the “tail withdrawal time (latency) to cold stimulation” value in series [1] was “increased tail withdrawal time (latency)”. The “equimolar (μmol/kg) ED50 / dose-response curve relative to ApAP” value in series [1] (tail flick) was “comparable or improved ED50; also recorded: clear shift to the left”. Also, the “analgesia, paw withdrawal latencies” value with Sprague-Dawley rats (aged male rats) and with Sprague-Dawley rats (setting [2]) was “significant analgesia” each time. Also, the “antinociception in Hargreaves assay” value with Sprague-Dawley rats (young female and male rats and aged male rats) is “Antinociception was also confirmed”. The “centrilobular necrosis / nitrotyrosine staining of liver sections” value in the series with CD1 mice (CD1 mice, 600 mg/kg PO, 12 h) is “lack nitrotyrosine staining”. Moreover, in the series on CD1 mice (CD1 mice, 600 mg/kg, serum), the “liver transaminases ALT and AST” value is on record as “not observed”. For the same compound, the signs of hepatotoxicity result with CD1 mice (600 mg/kg) is listed as “no signs of hepatotoxicity”. The “animals dead in 48 hours” value in the series on CD1 mice was “none”. In the series with CD1 mice (mouse, in vivo, 600 mg/kg), the “TUNEL-positive apoptotic nuclei in liver sections” value is on record as “almost no TUNEL signal”.
